Bounds are passed on as bounds.

Holding throughout (assay type): cell-based
For experiment [1], the system named is primary human mesenchymal stem cells (hMSCs). Briefly: Chondrogenesis induction in hMSCs (nodule count, Rhodamine B/Nile Red). The note with it: 144 h, 6 days; for Emax: relative to TGF-β3 (10 ng/mL) positive control, read-out: Max. Activity as % TGF-β3 activity. As to the method: Representative compounds were screened using primary human mesenchymal stem cells (hMSCs) to determine their ability to induce chondrogenesis (process by which cartilage is developed).
Primary human mesenchymal stem cells (hMSCs) were purchased from Lonza (Walkersville, Md.) and expanded in Mesenchymal Stem Cell Growth Media (Lonza). Cells between passage 3 and 6 were used for the experiments.
Each compound was dissolved in DMSO as a 10 mM stock and used to prepare compound source plates. Serial dilution (1:3, 6-point dose-response curves from 2700 nM to 10 nM) and compound transfer was performed using the ECHO 550 (Labcyte, Sunnyvale, Calif.) into 96-well clear bottom assay plates (Greiner Bio-One) with appropriate DMSO backfill for a final DMSO concentration of 0.03%. hMSCs were plated at 20,000 cells/well in 250 μL/well Incomplete Chondrogenic Induction Medium (Lonza; DMEM, dexamethasone, ascorbate, insulin-transferrin-selenium [ITS supplement], gentamycin-amphotericin [GA-1000], sodium pyruvate, proline and L-glutamine). TGF-β3 (10 ng/mL) was used as a positive control for differentiation while negative control wells were treated with 75 nL DMSO for normalization and calculating EC50 values. Cells were incubated at 37° C. and 5% CO2 for 6 days. To image chondrogenic nodules, the cells were fixed using 4% formaldehyde (Electron Microscopy Sciences), and stained with 2 μg/mL Rhodamine B (Sigma-Aldrich) and 20 μM Nile Red (Sigma-Aldrich) [Johnson K., et. al, A Stem Cell-Based Approach to Cartilage Repair, Science, (2012), 336(6082), 717-721]. The nodules imaged (4 images per well at 4× magnification) by excitation at 531 nm and emission at 625 nm and quantified using the CellInsight CX5 (Thermo Scientific). Number of nodules in each well was normalized to the average of 3 DMSO treated wells on the same plate using Excel (Microsoft Inc.). The normalized averages (fold change over DMSO) of 3 replicate wells for each compound concentration were calculated. Due to solubility limitations of some of the compounds, curve fitting was incomplete leading to inaccurate EC50 determinations.
Using TGF-β3 as a positive control, the concentration of representative compounds required to induce 50% levels of chondrogenesis is reported. In addition, the maximum activity of each compound and the respective dose that each compound reached maximum chondrogenesis activity is reported.

Experiment [2] relates to Wnt activity (Sp5-Luc reporter, SW480 colon carcinoma cells). Briefly: Wnt activity screening assay, Sp5-Luc reporter gene in SW480 cells. The note with it: Homo sapiens; for inhibition at 10 µM: given for EC50 >10 μM, read-out: percent inhibition at 10 μM; for EC50: overnight incubation. An outline of the steps:
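SW480 colon carcinoma cells stably expressing firefly luciferase under a human Sp5 promoter (eight TCF/LEF sites), plated in 1% FBS medium. 10-point 1:3 dilutions from 10 μM, 0.1% DMSO final, overnight at 37 °C; luminescence normalized to DMSO, four-parameter fit for EC50, % inhibition at 10 μM if EC50 >10 μM.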
A general note: Reporter assays use an easily measured gene product as a stand-in for the process of interest.

The subject of experiment [3] is SW480 colon cancer cells. Briefly: Cell viability assay (CellTiter-Blue). The settings on record: Homo sapiens, 96 h, four days; for inhibition at 10 µM: given for EC50 >10 μM, read-out: percent inhibition at 10 μM. In outline: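 SW480 colon cancer cells (~2×10^3/well) exposed to 8-point 1:3 dilutions from 10 μM to 0.0045 μM for four days at 37 °C/5% CO2. Viability read by resazurin (CellTiter-Blue) fluorescence after ~3 h, Ex 560/Em 590 nm. EC50 from non-linear regression; percent inhibition at 10 μM given when EC50 >10 μM.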
In general terms: Alamar Blue is a resazurin reagent that responds to reducing activity.

The inhibition is the change of the read-out against control, counted positive when it falls. `O=C(CC1CCNCC1)Nc1cncc(-c2cnc3[nH]nc(-c4cc5c(-c6ccncc6)ccnc5[nH]4)c3c2)c1` [Compound 577]: the Emax in experiment [1] amounted to 27%. In addition, the figures for the inhibition at 10 µM in experiment [2] and in experiment [3] were 12.5% and 8.7%, respectively. Besides, the EC50 in experiment [2] and in experiment [3] was above 10 µM each time.

For the compound `CN1CCN(c2ccnc3[nH]c(-c4n[nH]c5ncc(-c6cn[nH]c6)cc45)cc23)CC1` [Compound 635, 3-(4-(4-Methylpiperazin-1-yl)-1H-pyrrolo[2,3-b]pyridin-2-yl)-5-(1H-pyrazol-4-yl)-1H-pyrazolo[3,4-b]pyridine], the Emax in experiment [1] was 20%. Also, in experiment [2], the inhibition at 10 µM amounted to 5.8% and the EC50 is above 10 µM. Moreover, in experiment [3], the EC50 is above 10 µM and the inhibition at 10 µM is 3.6%.

As for `Cn1cc(-c2cnc3[nH]nc(-c4cc5cccnc5[nH]4)c3c2)cn1` [Compound 652, 5-(1-Methyl-1H-pyrazol-4-yl)-3-(1H-pyrrolo[2,3-b]pyridin-2-yl)-1H-pyrazolo[3,4-b]pyridine], the EC50 in experiment [1] (concentration required to induce 50% levels of chondrogenesis vs TGF-β3, read-out: Conc (nM) of 50% TGF-β3 activity) was 300 nM; in experiment [2] it was above 10 µM; in experiment [3], above 10 µM. Besides, in experiment [1], the Emax is 52%. Further, the inhibition at 10 µM in experiment [2] was determined as 23.4%; in experiment [3] it was 9.2%.

Values taken from patent publication US10285983B2, “3-(1H-pyrrolo[2,3-B]pyridin-2-yl)-1H-pyrazolo[3,4-B] pyridines and therapeutic uses thereof” (Samumed, LLC, priority 2015, dated 2019).
